Assay results as given in patent EP3006026A1, “PHARMACEUTICAL COMPOSITION FOR TREATING ANXIETY CONTAINING L-THEANINE AND BAICALEIN” (FB HEALTH S.P.A., priority 2014, dated 2016).

How the values were obtained:
murine model of anxiety = experiment: elevated maze plus (EPM) test, murine model of anxiety; assay type: in vivo, mice; details: 60 minutes prior to maze; for time in percentage on the open arms: 10 mg/kg p.o.; for percentage of time spent on the closed arms: compared to the control, 6 minutes observation
Description: The activity of a combination of L-theanine and baicalein was tested in a murine model of anxiety.
The mice were assigned randomly to different treatment groups and subjected to tests in a variable order.
Diazepam (Hoffmann - La Roche) was used as reference product. The diazepam was diluted to a concentration of 1.5 mg/10 ml with deionised water (Millipore quality) containing propylene glycol 0.5% (Sigma-Aldrich). Two different doses (10 mg/kg and 25 mg/kg) of bot. baicalein and L-theanine were prepared dissolving the powder in 10 ml of deionised water with propylene glycol 0.5%. All the solutions were prepared the same day as the tests and administered orally (p.o.) in a volume of 10 ml/kg by body weight of the mice. The control animals received a solution of propylene glycol 0.5%.
The animals of the experiment were treated orally with a carrier, diazepam (1.5 mg/kg, n=8), L-theanine (10 mg/kg, 25 mg/kg, n=8), baicalein (10 mg/kg, 25 mg/kg, n=8) or L-theanine + baicalein, in a ratio 1/1 (10 mg/kg, 25 mg/kg, n=8), 60 minutes prior to evaluation in the maze.
Anxiolytic activity was evaluated using the elevated maze plus (EPM) test. [ ]. The maze was composed of two open arms (31 cm x 5 cm x 1 cm) and two closed arms (31 cm x 5 cm x 15 cm) that extended from a central platform (5 cm x 5 cm) raised to a height of 40 cm from the floor. On the wooden base frame, the closed arms were made of opaque grey plastic, while the open arms were made of the same material with only one slightly raised edge. The EPM was indirectly illuminated by three 40W bulbs.
(§1) The mice were placed individually at the centre of the maze facing a closed arm and the number of entries and the time spent in the closed and open arms during an observation period of 6 minutes was recorded. Entries to the arms were defined as the entry of all four paws into an arm [ ]. The time in percentage spent on the open arms (100 x open/total time) was calculated for each animal. We also used the open field test to evaluate possible sedative or stimulating activity of the animals [ ]. The open field consisted of a rectangular opaque grey plastic arena (width 30 cm, length 27 cm, height 30 cm) and was illuminated by six 40W bulbs. The floor of the arena was divided into 6 equidistant rectangles to evaluate the number of times the lines were crossed. Groups of 8 mice were treated with diazepam (1.5 mg/kg, 3 mg/kg p.o.), L-theanine (25 mg/kg, 50 mg/kg n=8), baicalein (25 mg/kg, 50 mg/kg, n=8) or L-theanine + baicalein, in a 1/1 ratio (25 mg/kg, 50 mg/kg, n=8) or a carrier (deionised water with propylene glycol at 0.5% p.o.). All the solutions contained propylene glycol at 0.5% as solubilising substance for diazepam. 60 minutes after oral administration, each mouse was placed at the centre of the arena and recorded for 5 minutes.
The EPM and the open field test were both video recorded using a high resolution video camera WV-CP244 (Panasonic).
Statistical analysis of the data was performed using one-way analysis of variance (ANOVA) followed by the Student-Newman-Keuls multiple comparison test. In all cases the differences were considered significant if p < 0.05.

mice = experiment: open field test for sedative or stimulating activity; assay type: in vivo; details: 60 minutes after administration, recorded 5 minutes
Description: as §1, with “Groups of 8 mice were treated with diazepam (1.5 mg/kg, 3 mg/kg p.o.), L-theanine (25 mg/kg, 50 mg/kg n=8), baicalein (25 mg/kg, 50 mg/kg, n=8) or L-theanine + baicalein, in a 1/1 ratio (25 mg/kg, 50 mg/kg, n=8) or a carrier (deionised water with propylene glycol at 0.5% p.o.). All the solutions contained propylene glycol at 0.5% as solubilising substance for diazepam.” left out
The EPM and the open field test were both video recorded using a high resolution video camera WV-CP244 (Panasonic). The videos were analysed using the TopScan Top View Animal Behaviour Analyzing System (version 1.00; Clever Sys Inc.) by an impartial person who has no knowledge of the treatment. […]

Row | Compound | time in percentage on the open arms (murine model of anxiety) | percentage of time spent on the closed arms (murine model of anxiety; 25 mg/kg p.o.) | number of entries to the open arms (murine model of anxiety; diazepam 1.5 mg/kg p.o.) | percentage of time spent on the closed arms (murine model of anxiety; diazepam 1.5 mg/kg p.o.) | sedation in the open field test (mice; 1.5 mg/kg p.o.) | sedation in the open field test (mice; 3 mg/kg p.o.)
1 | CCNC(=O)CC[C@H](N)C(=O)O [L-theanine, N-ethyl-L-glutamine] | did not show any increase | significant increase | – | – | – | –
2 | O=c1cc(-c2ccccc2)oc2cc(O)c(O)c(O)c12 [baicalein, 5,6,7-trihydroxy-2-phenyl-chromen-4-one] | did not show any increase | significant increase | – | – | – | –
3 | CN1C(=O)CN=C(c2ccccc2)c2cc(Cl)ccc21 [diazepam] | – | – | greater | significant increase | caused significant sedation | caused significant sedation
